Patent publication US7745446B2, “Pyrazolo[1,5-c]pyrimidines” (Bayer Schering Pharma Aktiengesellschaft, priority 2004, dated 2010)

Tests used:
[1] = molecular target: T1, GST-ΔPH-Akt1 (Homo sapiens, UniProt P31749); assay: Biochemical ΔPH Akt1 assay (flashplate, 33P incorporation into histone 2B); conditions: 100 nM ATP, histone 2B substrate; read-out: ΔPHAkt1 inhibition: IC50
T1 construct: named GST-deltaPH-Akt1; 107-480aa; cloned in the pAcGl vector; GST (N); made in house; host or cells: SF9 insect cells (baculovirus vector pAcG1), co-expressed with PDK1
Text: For the biochemical assay ΔPHAkt1 is used devoid of its PH domain as a GST fusion protein (named GST-deltaPH-Akt1; 107-480aa; cloned in the pAcGl vector (BD Biosciences Pharmingen)), co-expressed with PDK1 in SF9 insect cells. The protein is purified using glutathion-affinity chromatography by standard protocols.
In order to study the inhibition of Akt according to the invention, a flashplate-based assay has been developed.
The Akt1 assay is a biochemical assay using Akt1 devoid of its PH domain and co-expressed with PDK1 in insect cells. The GST-ΔPH-Akt1 assay is run in 96 well plates by incubating 100 ng/well GST-ΔPH-Akt1, 100 ng/well histone 2B (Roche, #223514) as substrate, 10 μl of compound of invention (test compounds were dissolved as 10 mM solutions in dimethylsulfoxide (DMSO) and subsequently diluted) and 100 nM ATP (including ^33P-ATP) in 100 μl of reaction buffer ([…], pH7,5; 3 mM MgCl2; 3 mM MnCl2; 3 μM Na-Orthovanadat; 1 mM DTT; 1 μg/ml PEG8000) for 80 minutes at 30° C. The reactions are terminated by adding 100 μl stopping buffer (2% H3PO4 for 5 minutes) and are washed 3 times by using washing buffer (0.9% NaCl). Relying on the incorporation of ^33P into the protein substrate histone 2B, the detection is based on the adhesion of the phosphorylated protein to the surface of scintillator-coated flash plates (NEN, USA; #SMP-200). This phosphorylation is measured by counting the plate for 60 sec. using a plate reader (Wallac Microbeta; Perkin Elmer, USA).

[2] = molecular target: T2, PKA (Homo sapiens, UniProt P17612); assay: Biochemical PKA assay (flashplate); conditions: 100 nM ATP; read-out: PKA inhibition: −log IC50 (converted)
T2 construct: His; purchased PanVera, USA #R3791; host or cells: E. coli
Description: For the biochemical PKA assay the catalytic subunit of PKA is expressed in E. coli as a His-tagged human recombinant protein and purified accordingly (PanVera, USA; #R3791).
In order to study the kinase inhibition activity of the compounds according to the invention, a flashplate-based assay has been developed for the serine/threonine kinase, PKA. The assay is run in 96 well plates by incubating 1 ng/well His-PKA (PanVera, USA; #R3791), 0.5 μM/well PKA peptide (#12-394; Upstate, USA) as substrate, 10 μl of compound of invention (test compounds were dissolved as 10 mM solutions in dimethylsulfoxide (DMSO) and subsequently diluted) and 100 nM ATP (including ^33P-ATP) in 100 μl of reaction buffer ([…], pH7,5; 3 mM MgCl2; 3 mM MnCl2; 3 μM Na-Orthovanadat; 1 mM DTT) for 80 minutes at 22° C. The reactions are stopped by adding 100 μl stopping buffer (2% H3PO4 for 5 minutes) and are washed 3 times by using washing buffer (200 μl 1×PBS). Relying on the incorporation of ^33P into the peptide substrate, the detection is based on the adhesion of the phosphorylated peptide to the surface of scintillator-coated Flash plates (Perkin Elmer, USA; #SMP-103). This phosphorylation is measured by counting the plate for 60 sec. using a plate reader (Wallac Microbeta; Perkin Elmer, USA). By using this method the IC50 of the PKA inhibition is determined.

[3] = system: MCF7 cells; assay: Cellular proliferation/cytotoxicity assay (Alamar Blue), MCF7; conditions: Homo sapiens, MCF7, 48 h, read-out: Anti-proliferative/cytotoxic activity: IC50 MCF7
Description: (§1) The anti-proliferative activity of the compounds as described herein, is evaluated using MCF7 and MDA-MB-468 (ATCC HTB-22 and HTB-132) cell lines and the Alamar Blue (Resazurin) cell viability assay (O'Brien et al. Eur J Biochem 267, 5421-5426, 2000). Resazurin is reduced to the fluorescent resorufin by cellular dehydrogenase activity, correlating with viable, proliferating cells. Test compounds are dissolved as 10 mM solutions in DMSO and subsequently diluted. MCF7 or MDA-MB-434 cells were seeded into 96 well flat bottom plates at a density of 10000 cells/well (MCF7) or 5000 cells/well (MDA-MB-468) in a volume of 200 μl/well. 24 hours after seeding, 1 μl each of the compound dilutions are added into each well of the 96 well plates. Each compound dilution is tested as at least as duplicates. Wells containing untreated control cells were filled with 200 μl DMEM containing 0.5% v:v DMSO. The cells are then incubated with the substances for 48 hours at 37° C. in a humidified atmosphere containing 5% carbon dioxide. To determine cell viability, 20 μl of a Resazurin solution (Sigma; 90 mg/l) are added. After 4 hours incubation at 37° C. the fluorescence is measured at an extinction of 544 nm and an emission of 590 nm (Wallac Victor2; Perkin Elmer, USA). For the calculation of the cell viability the emission value from untreated cells is set as 100% viability and the emission rates of treated cells are set in relation to the values of untreated cells. Viabilities are expressed as % values. The corresponding IC50 values of the compounds for cytotoxic activity are determined from the concentration-effect curves by means of non-linear regression. The analysis of the data is performed using a biostatistical program (GraphPad Prism, USA).

[4] = system: MDA-MB-468 cells; assay: Cellular proliferation/cytotoxicity assay (Alamar Blue), MDA-MB-468; conditions: Homo sapiens, MDA-MB-468, 48 h, read-out: Anti-proliferative/cytotoxic activity: IC50 MDA468
Description: as §1

T1 sequence (P31749 107-480, stated change not applied): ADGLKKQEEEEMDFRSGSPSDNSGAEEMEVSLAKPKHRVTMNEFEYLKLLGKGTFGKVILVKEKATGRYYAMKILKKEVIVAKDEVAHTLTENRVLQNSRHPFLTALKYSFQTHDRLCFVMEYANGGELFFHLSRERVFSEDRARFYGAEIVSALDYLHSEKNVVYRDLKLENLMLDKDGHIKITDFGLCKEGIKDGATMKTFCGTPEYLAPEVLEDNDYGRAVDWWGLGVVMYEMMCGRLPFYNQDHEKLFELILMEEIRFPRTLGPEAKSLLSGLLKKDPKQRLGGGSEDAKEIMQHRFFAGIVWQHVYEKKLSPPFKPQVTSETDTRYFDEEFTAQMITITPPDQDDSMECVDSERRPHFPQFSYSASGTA

SMILES	IC50 [1]	IC50 [2]	IC50 [3]	IC50 [4]
COc1ccc(-c2ccc(-c3cc4ccnn4c(Nc4ccc(NC(=O)c5ccc(CN)cc5)cc4)n3)cc2)cc1 [Example 55, 4-Aminomethyl-N-{4-[5-(4′-methoxy-biphenyl-4-yl)-pyrazolo[1,5-c]pyrimidin-7-ylamino]-phenyl}-benzamide]	≤ 1.75 µM	> 100 µM	≤ 16.9 µM	≤ 13.6 µM
NCc1ccc(C(=O)Nc2ccc(Nc3nc(-c4ccc(-c5ccc(F)cc5)cc4)cc4ccnn34)cc2)cc1 [Example 67, 4-Aminomethyl-N-{4-[5-(4′-fluoro-biphenyl-4-yl)-pyrazolo[1,5-c]pyrimidin-7-ylamino]-phenyl}-benzamide]	≤ 1.75 µM	6.31 to 100 µM	≤ 16.9 µM	≤ 13.6 µM
NCc1ccc(C(=O)Nc2ccc(Nc3nc(-c4cccc5c4oc4ccccc45)cc4ccnn34)cc2)cn1 [Example 29, 6-Aminomethyl-N-[4-(5-dibenzofuran-4-yl-pyrazolo[1,5-c]pyrimidin-7-ylamino)-phenyl]-nicotinamide]	≤ 1.75 µM	> 100 µM	≤ 16.9 µM	≤ 13.6 µM
CC(=O)Nc1cccc(-c2ccc(-c3cc4ccnn4c(Nc4ccc(NC(=O)c5ccc(CN)cc5)cc4)n3)cc2)c1 [Example 60, N-{4-[5-(3′-Acetylamino-biphenyl-4-yl)-pyrazolo[1,5-c]pyrimidin-7-ylamino]-phenyl}-4-aminomethyl-benzamide]	≤ 1.75 µM	6.31 to 100 µM		
O=C(Nc1cccc(Nc2nc(-c3cccc4c3oc3ccccc34)cc3ccnn23)c1)c1ccc2c(c1)CNCC2 [Example 34, 1,2,3,4-Tetrahydro-isoquinoline-7-carboxylic acid [3-(5-dibenzofuran-4-yl-pyrazolo[1,5-c]pyrimidin-7-ylamino)-phenyl]-amide]	≤ 1.75 µM	6.31 to 100 µM	≤ 16.9 µM	≤ 13.6 µM
CC(C)(N)c1ccc(C(=O)Nc2ccc(Nc3nc(-c4cccc5c4oc4ccccc45)cc4ccnn34)cc2)cc1 [Example 39, 4-(1-Amino-1-methyl-ethyl)-N-[4-(5-dibenzofuran-4-yl-pyrazolo[1,5-c]pyrimidin-7-ylamino)-phenyl]-benzamide]	≤ 1.75 µM	6.31 to 100 µM	≤ 16.9 µM	≤ 13.6 µM
O=C(Nc1ccc(Nc2nc(-c3cccc4c3oc3ccccc34)cc3ccnn23)cc1)c1ccc2c(c1)CNCC2 [Example 35, 1,2,3,4-Tetrahydro-isoquinoline-7-carboxylic acid [4-(5-dibenzofuran-4-yl-pyrazolo[1,5-c]pyrimidin-7-ylamino)-phenyl]-amide]	≤ 1.75 µM	> 100 µM	≤ 16.9 µM	≤ 13.6 µM
NCc1ccc(C(=O)Nc2ccc(Nc3nc(-c4ccc(-c5ccccc5)nc4)cc4ccnn34)cc2)cc1 [Example 54, 4-Aminomethyl-N-{4-[5-(6-phenyl-pyridin-3-yl)-pyrazolo[1,5-c]pyrimidin-7-ylamino]-phenyl}-benzamide]	≤ 1.75 µM	6.31 to 100 µM		
NCc1ccc(C(=O)Nc2ccc(Nc3nc(-c4ccc(-c5ccccc5)cc4)cc4ccnn34)cc2)cc1 [Example 1, 4-Aminomethyl-N-[4-(5-biphenyl-4-yl-pyrazolo[1,5-c]pyrimidin-7-ylamino)-phenyl]-benzamide]	≤ 1.75 µM	> 100 µM	≤ 16.9 µM	≤ 13.6 µM
NCC(C(=O)Nc1cccc(Nc2nc(-c3cccc4c3oc3ccccc34)cc3ccnn23)c1)c1ccc(Cl)c(Cl)c1 (racemic) [Example 41, rac-3-Amino-N-[3-(5-dibenzofuran-4-yl-pyrazolo[1,5-c]pyrimidin-7-ylamino)-phenyl]-2-(3,4-dichloro-phenyl)-propionamide]	≤ 1.75 µM	> 100 µM	≤ 16.9 µM	≤ 13.6 µM
NCc1ccc(C(=O)Nc2ccc(Nc3nc(-c4ccc5cc(OCc6ccccc6)ccc5c4)cc4ccnn34)cc2)cc1 [Example 42, 4-Aminomethyl-N-{4-[5-(6-benzyloxy-naphthalen-2-yl)-pyrazolo[1,5-c]pyrimidin-7-ylamino]-phenyl}-benzamide]	≤ 1.75 µM	> 100 µM	≤ 16.9 µM	≤ 13.6 µM
NCc1cc(C(=O)Nc2ccc(Nc3nc(-c4cccc5c4oc4ccccc45)cc4ccnn34)cc2)ccn1 [Example 30, 2-Aminomethyl-N-[4-(5-dibenzofuran-4-yl-pyrazolo[1,5-c]pyrimidin-7-ylamino)-phenyl]-isonicotinamide]	≤ 1.75 µM	> 100 µM		
COc1cccc(-c2ccc(-c3cc4ccnn4c(Nc4ccc(NC(=O)c5ccc(CCN)cc5)cc4)n3)cc2)c1 [Example 78, 4-(2-Amino-ethyl)-N-{4-[5-(3′-methoxy-biphenyl-4-yl)-pyrazolo[1,5-c]pyrimidin-7-ylamino]-phenyl}-benzamide]	≤ 1.75 µM		≤ 16.9 µM	≤ 13.6 µM
O=C(Nc1ccc(Nc2nc(-c3ccc(Br)cc3)cc3ccnn23)cc1)c1ccc2c(c1)CCNC2 [Example 85, 1,2,3,4-Tetrahydro-isoquinoline-6-carboxylic acid {4-[5-(4-bromo-phenyl)-pyrazolo[1,5-c]pyrimidin-7-ylamino]-phenyl}-amide]	≤ 1.75 µM		≤ 16.9 µM	≤ 13.6 µM
NCc1cccc(C(=O)Nc2ccc(Nc3nc(-c4cccc5c4oc4ccccc45)cc4ccnn34)cc2)n1 [Example 51, 6-Aminomethyl-pyridine-2-carboxylic acid [4-(5-dibenzofuran-4-yl-pyrazolo[1,5-c]pyrimidin-7-ylamino)-phenyl]-amide]	≤ 1.75 µM	> 100 µM		
N=C(N)Nc1ccc(C(=O)Nc2ccc(Nc3nc(-c4cccc5c4oc4ccccc45)cc4ccnn34)cc2)cc1 [Example 48, N-[4-(5-Dibenzofuran-4-yl-pyrazolo[1,5-c]pyrimidin-7-ylamino)-phenyl]-4-guanidino-benzamide]	≤ 1.75 µM	> 100 µM		
NCc1cccc(C(=O)Nc2ccc(Nc3nc(-c4cccc5c4oc4ccccc45)cc4ccnn34)cc2)c1 [Example 20, 3-Aminomethyl-N-[4-(5-dibenzofuran-4-yl-pyrazolo[1,5-c]pyrimidin-7-ylamino)-phenyl]-benzamide]	≤ 1.75 µM		≤ 16.9 µM	≤ 13.6 µM
CC(C)(N)c1ccc(C(=O)Nc2cccc(Nc3nc(-c4cccc5c4oc4ccccc45)cc4ccnn34)c2)cc1 [Example 40, 4-(1-Amino-1-methyl-ethyl)-N-[3-(5-dibenzofuran-4-yl-pyrazolo[1,5-c]pyrimidin-7-ylamino)-phenyl]-benzamide]	≤ 1.75 µM	6.31 to 100 µM		
NCc1ccc(C(=O)Nc2cccc(Nc3nc(-c4cccc5c4oc4ccccc45)cc4ccnn34)c2)cc1 [Example 17, 4-Aminomethyl-N-[3-(5-dibenzofuran-4-yl-pyrazolo[1,5-c]pyrimidin-7-ylamino)-phenyl]-benzamide]	≤ 1.75 µM		≤ 16.9 µM	≤ 13.6 µM
COc1ccc2cc(-c3cc4ccnn4c(Nc4ccc(NC(=O)c5ccc(CN)cc5)cc4)n3)ccc2c1 [Example 45, 4-Aminomethyl-N-{4-[5-(6-methoxy-naphthalen-2-yl)-pyrazolo[1,5-c]pyrimidin-7-ylamino]-phenyl}-benzamide]	≤ 1.75 µM		≤ 16.9 µM	≤ 13.6 µM
